{"source": "paper PMC10080691", "about": "“Enzyme-Responsive Double-Locked Photodynamic Molecular Beacon for Targeted Photodynamic Anticancer Therapy” (Journal of the American Chemical Society, 2023)", "origin": "cited, not measured here", "key": {"[1]": {"conditions": "in DMF; reference standard value; cited from earlier work", "text": "The electronic absorption and fluorescence spectra of PMB 1 were first recorded in DMF and compared with those of the components 8 and 11, as well as the non-cleavable analogue 14 (Figure S2 and Table 1). […] In ..."}, "[2]": {"conditions": "in DMF; reference standard value; cited from earlier work", "text": "The singlet oxygen generation efficiency of 1 was then studied and compared with that of 8, 14, and ZnPc in all these media using 1,3-diphenylisobenzofuran (DPBF) as the singlet oxygen probe.[67] The absorbance of DPBF’s absorption at 415 nm (in DMF) or 417 nm (in PBS and the buffer) was monitored during light irradiation (λ > 610 nm). Figures S4–S6 show the changes in the absorption spectra of the mixtures in DMF, PBS, and the buffer, respectively, upon irradiation. It can be seen that in all these media while 8 and ZnPc could effectively sensitize the formation of singlet oxygen to induce su ...", "remark": "listed apart in the source"}}, "data": [{"smiles": "[Zn+2].c1ccc2c(c1)-c1nc-2nc2[n-]c(nc3nc([n-]c4nc(n1)-c1ccccc1-4)-c1ccccc1-3)c1ccccc21", "note": "[ZnPc, zinc(II) phthalocyanine]", "values": [{"measurement": "ΦF (fluorescence quantum yield) of reference", "setting": "[1]", "result": 0.28}, {"measurement": "ΦΔ (singlet oxygen quantum yield) of reference", "setting": "[2]", "result": 0.56}]}]}
